Key:
Avena fatua [1] = experiment: Pre-emergence herbicidal effect; assay type: in vivo; conditions: Dosage 320 g/ha, visual scoring after 3 weeks vs untreated controls, 100% = plants have died
Procedure, shortened: (§1)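 Seeds sown in sandy loam and covered with soil; compound (WP or EC formulation) sprayed onto soil surface as aqueous suspension/emulsion at 600 to 800 l/ha water with 0.2% wetting agent, dose in g/ha. Greenhouse; visual damage scored after 3 weeks versus untreated controls (0% = control, 100% = dead).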

Amaranthus retroflexus [2] = experiment: Pre-emergence herbicidal effect; assay type: in vivo; conditions: Dosage 320 g/ha, visual scoring after 3 weeks vs untreated controls, 100% = plants have died
Procedure, shortened: as §1

Setaria viridis [3] = experiment: Pre-emergence herbicidal effect; assay type: in vivo; conditions: Dosage 320 g/ha, visual scoring after 3 weeks vs untreated controls, 100% = plants have died
Procedure, shortened: as §1

Veronica persica [4] = experiment: Pre-emergence herbicidal effect; assay type: in vivo; conditions: Dosage 320 g/ha, visual scoring after 3 weeks vs untreated controls, 100% = plants have died
Procedure, shortened: as §1

Stellaria media [5] = experiment: Pre-emergence herbicidal effect; assay type: in vivo; conditions: Dosage 320 g/ha, visual scoring after 3 weeks vs untreated controls, 100% = plants have died
Procedure, shortened: as §1

Polygonum convolvulus [6] = experiment: Pre-emergence herbicidal effect; assay type: in vivo; conditions: Dosage 320 g/ha, visual scoring after 3 weeks vs untreated controls, 100% = plants have died
Procedure, shortened: as §1

Matricaria inodora [7] = experiment: Pre-emergence herbicidal effect; assay type: in vivo; conditions: Dosage 320 g/ha, visual scoring after 3 weeks vs untreated controls, 100% = plants have died
Procedure, shortened: as §1

Echinochloa crus-galli [8] = experiment: Pre-emergence herbicidal effect; assay type: in vivo; conditions: Dosage 320 g/ha, visual scoring after 3 weeks vs untreated controls, 100% = plants have died
Procedure, shortened: as §1

Lolium multiflorum [9] = experiment: Pre-emergence herbicidal effect; assay type: in vivo; conditions: Dosage 320 g/ha, visual scoring after 3 weeks vs untreated controls, 100% = plants have died
Procedure, shortened: as §1

Alopecurus myosuroides [10] = experiment: Pre-emergence herbicidal effect; assay type: in vivo; conditions: Dosage 320 g/ha, visual scoring after 3 weeks vs untreated controls, 100% = plants have died
Procedure, shortened: as §1

Viola tricolor [11] = experiment: Pre-emergence herbicidal effect; assay type: in vivo; conditions: Dosage 320 g/ha, visual scoring after 3 weeks vs untreated controls, 100% = plants have died
Procedure, shortened: as §1

Cyperus esculentus = experiment: Pre-emergence herbicidal effect; assay type: in vivo; conditions: Dosage 320 g/ha, visual scoring after 3 weeks vs untreated controls, 100% = plants have died
Procedure, shortened: as §1

[12] = logp (HCOOH), chemicophysical data; conditions: HCOOH
PHBPU = experiment: Post-emergence herbicidal effect; assay type: in vivo; conditions: Dosage 320 g/ha, one-leaf stage, visual scoring after ca. 3 weeks vs untreated controls, 100% = plants have died
Procedure, shortened: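 Effect is rated visually as percent versus untreated plants (0% = like controls, 100% = plants died) about 3 weeks post-treatment. Plants at the one-leaf stage, 2 to 3 weeks from sowing in sandy loam, received spray of wettable powder or emulsion concentrate in 600 to 800 l/ha water plus 0.2% wetting agent, dosed in g/ha.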

Avena fatua [13] = experiment: Post-emergence herbicidal effect; assay type: in vivo; conditions: Dosage 320 g/ha, one-leaf stage, visual scoring after ca. 3 weeks vs untreated controls, 100% = plants have died
Procedure, shortened: (§2)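 Herbicidal effect scored visually at ca. 3 weeks as % of untreated control, 100% meaning plants died. Treatment: spray of aqueous WP or EC preparations, dosed in g/ha, water rate 600 to 800 l/ha with 0.2% wetting agent, onto one-leaf-stage plants raised 2-3 weeks in sandy loam.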

Amaranthus retroflexus [14] = experiment: Post-emergence herbicidal effect; assay type: in vivo; conditions: Dosage 320 g/ha, one-leaf stage, visual scoring after ca. 3 weeks vs untreated controls, 100% = plants have died
Procedure, shortened: as §2

Setaria viridis [15] = experiment: Post-emergence herbicidal effect; assay type: in vivo; conditions: Dosage 320 g/ha, one-leaf stage, visual scoring after ca. 3 weeks vs untreated controls, 100% = plants have died
Procedure, shortened: as §2

Veronica persica [16] = experiment: Post-emergence herbicidal effect; assay type: in vivo; conditions: Dosage 320 g/ha, one-leaf stage, visual scoring after ca. 3 weeks vs untreated controls, 100% = plants have died
Procedure, shortened: as §2

Stellaria media [17] = experiment: Post-emergence herbicidal effect; assay type: in vivo; conditions: Dosage 320 g/ha, one-leaf stage, visual scoring after ca. 3 weeks vs untreated controls, 100% = plants have died
Procedure, shortened: as §2

Echinochloa crus-galli [18] = experiment: Post-emergence herbicidal effect; assay type: in vivo; conditions: Dosage 320 g/ha, one-leaf stage, visual scoring after ca. 3 weeks vs untreated controls, 100% = plants have died
Procedure, shortened: as §2

Lolium multiflorum [19] = experiment: Post-emergence herbicidal effect; assay type: in vivo; conditions: Dosage 320 g/ha, one-leaf stage, visual scoring after ca. 3 weeks vs untreated controls, 100% = plants have died
Procedure, shortened: as §2

Alopecurus myosuroides [20] = experiment: Post-emergence herbicidal effect; assay type: in vivo; conditions: Dosage 320 g/ha, one-leaf stage, visual scoring after ca. 3 weeks vs untreated controls, 100% = plants have died
Procedure, shortened: as §2

Abutilon theophrasti [21] = experiment: Pre-emergence herbicidal effect; assay type: in vivo; conditions: Dosage 320 g/ha, visual scoring after 3 weeks vs untreated controls, 100% = plants have died
Procedure, shortened: as §1

Polygonum convolvulus [22] = experiment: Post-emergence herbicidal effect; assay type: in vivo; conditions: Dosage 320 g/ha, one-leaf stage, visual scoring after ca. 3 weeks vs untreated controls, 100% = plants have died
Procedure, shortened: as §2

Viola tricolor [23] = experiment: Post-emergence herbicidal effect; assay type: in vivo; conditions: Dosage 320 g/ha, one-leaf stage, visual scoring after ca. 3 weeks vs untreated controls, 100% = plants have died
Procedure, shortened: as §2

Abutilon theophrasti [24] = experiment: Post-emergence herbicidal effect; assay type: in vivo; conditions: Dosage 320 g/ha, one-leaf stage, visual scoring after ca. 3 weeks vs untreated controls, 100% = plants have died
Procedure, shortened: as §2

Matricaria inodora [25] = experiment: Post-emergence herbicidal effect; assay type: in vivo; conditions: Dosage 320 g/ha, one-leaf stage, visual scoring after ca. 3 weeks vs untreated controls, 100% = plants have died
Procedure, shortened: as §2

Structure (SMILES)	Pre-emergence herbicidal effect AVEFA (Avena fatua [1]) [%]	Pre-emergence herbicidal effect AMARE (Amaranthus retroflexus [2]) [%]	Pre-emergence herbicidal effect SETVI (Setaria viridis [3]) [%]	Pre-emergence herbicidal effect VERPE (Veronica persica [4]) [%]	Pre-emergence herbicidal effect STEME (Stellaria media [5]) [%]	Pre-emergence herbicidal effect POLCO (Polygonum convolvulus [6]) [%]	Pre-emergence herbicidal effect MATIN (Matricaria inodora [7]) [%]	Pre-emergence herbicidal effect ECHCG (Echinochloa crus-galli [8]) [%]	Pre-emergence herbicidal effect LOLMU (Lolium multiflorum [9]) [%]	Pre-emergence herbicidal effect ALOMY (Alopecurus myosuroides [10]) [%]	Pre-emergence herbicidal effect VIOTR (Viola tricolor [11]) [%]	Pre-emergence herbicidal effect CYPES (Cyperus esculentus) [%]	logp (HCOOH) [12]	Post-emergence herbicidal effect AVEFA (Avena fatua [13]) [%]	Post-emergence herbicidal effect AMARE (Amaranthus retroflexus [14]) [%]	Post-emergence herbicidal effect SETVI (Setaria viridis [15]) [%]	Post-emergence herbicidal effect STEME (Stellaria media [17]) [%]	Post-emergence herbicidal effect ECHCG (Echinochloa crus-galli [18]) [%]	Post-emergence herbicidal effect LOLMU (Lolium multiflorum [19]) [%]	Post-emergence herbicidal effect ALOMY (Alopecurus myosuroides [20]) [%]	other results
Cc1ccc2c(c1)[C@H](Nc1ncc(F)c(N)n1)[C@@H](C)C2 [Example 1.56]	100	100	100	100	100	95	100	100	100	100	100	80	wax-like; logp (HCOOH): 1.20; 1H-NMR (CDCl3, 400 MHZ, δ in ppm): 1.25 (d, 3H, CH3);	80	80	80	80	90	93	85	Post-emergence herbicidal effect PHBPU (PHBPU): 90%; Post-emergence herbicidal effect VERPE (Veronica persica [16]): 90%
CC[C@H]1Cc2ccccc2[C@@H]1Nc1ncc(C#N)c(N)n1 [Example 1.129]	90	100	100	100	100	100	100	100	100	100	100	80	–	80	90	90	90	100	90	90	Pre-emergence herbicidal effect ABUTH (Abutilon theophrasti [21]): 80%; Post-emergence herbicidal effect VERPE (Veronica persica [16]): 90%; Post-emergence herbicidal effect POLCO (Polygonum convolvulus [22]): 90%; Post-emergence herbicidal effect VIOTR (Viola tricolor [23]): 80%; Post-emergence herbicidal effect ABUTH (Abutilon theophrasti [24]): 90%
Cc1ccc2c(c1)[C@H](Nc1ncc(Cl)c(N)n1)[C@@H](C)C2 [Example 1.105]	80	100	100	100	100	100	100	100	100	100	100	100	wax-like; logp (HCOOH): 1.27; 1H-NMR (CDCl3, 400 MHZ, δ in ppm): 1.30 (d, 3H, CH3);	90	90	90	90	100	90	80	Pre-emergence herbicidal effect ABUTH (Abutilon theophrasti [21]): 100%; Post-emergence herbicidal effect PHBPU (PHBPU): 90%; Post-emergence herbicidal effect POLCO (Polygonum convolvulus [22]): 80%; Post-emergence herbicidal effect MATIN (Matricaria inodora [25]): 90%; Post-emergence herbicidal effect VIOTR (Viola tricolor [23]): 80%; Post-emergence herbicidal effect ABUTH (Abutilon theophrasti [24]): 90%

Source: US8329717B2, “Pyrimidine derivatives and their use for controlling undesired plant growth” (Bayer Cropscience AG, priority 2008, dated 2012)
